Data reported in patent US20100160335A1, “PYRIDAZINONE DERIVATIVE AND PDE INHIBITOR CONTAINING THE SAME AS ACTIVE INGREDIENT” (KYORIN PHARMACEUTICAL CO., LTD., priority 2007, published 2010).
Read-outs that look alike come from different tables or passages of the source.

Tests used:
[1] = test system: LPS acute inflammation model in rats; assay: LPS acute inflammation model in rats (total leukocytes in BALF); type: in vivo; conditions: Rattus norvegicus, Leukocyte, po, 3 h, BALF 3 hours after LPS, read-out: Inhibition rate (total number of leukocytes in BALF)
Procedure: 1 mg/kg of the compound was orally administered to rat one hour before inhalation of a lipopolysaccharide from E. coli serotype 055:B5 (LPS), and the rat was made to inhale 50 mL of the LPS solution nebulized using a nebulizer for 30 minutes. Then, 3 hours after the LPS inhalation, the rat was euthanized with 20% urethane (5 ml/rat, i.p.). 5 ml of physiological saline for bronchoalveolar lavage was injected into the bronchial tubes and alveoli through the airway, and the bronchial tubes and alveoli were washed three times using a 5 mL syringe. This operation was repeated twice, and the solution was collected as bronchoalveolar lavage fluid (BALF). The collected BALF was centrifuged at 1200 rpm and 4° C. for 10 minutes (Hirtachi; himac CR 5 DL). The pellet was re-suspended in 10 mL of a 0.1% bovine serum albumin-physiological saline, and an equivalent amount of Turk's solution was added thereto to stain leukocytes. The total number of leukocytes was counted under a microscope to calculate the inhibition rate. Further, the indications were as follows: inhibition rate≧90% (++) and 90%>inhibition rate≧50% (+). [ ] means the results of the drug administration after fasting overnight.

PDE4Bcat = target: T1, PDE4Bcat (Homo sapiens, UniProt Q07343); assay: Phosphodiesterase inhibitory activity, PDE4 ([3H]cAMP, recombinant enzyme); type: biochemical; conditions: 30° C., 20 minutes, read-out: IC50(μmol/L) PDE4
T1 construct: made in house; host or cells: Sf9 insect cells (baculovirus, Bac-to-Bac / Gateway)
T1 sequence (Q07343 330-659 limits assumed): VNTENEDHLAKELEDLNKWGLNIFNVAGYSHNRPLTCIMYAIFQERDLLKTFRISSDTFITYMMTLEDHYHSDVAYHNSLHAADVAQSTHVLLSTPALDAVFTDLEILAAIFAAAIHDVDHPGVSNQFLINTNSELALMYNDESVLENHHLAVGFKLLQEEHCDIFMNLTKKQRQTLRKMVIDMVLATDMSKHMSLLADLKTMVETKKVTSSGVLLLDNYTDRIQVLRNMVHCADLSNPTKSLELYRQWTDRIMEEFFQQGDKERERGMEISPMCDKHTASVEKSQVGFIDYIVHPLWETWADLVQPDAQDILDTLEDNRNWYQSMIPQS

[2] = target: T2, PDE3A catalytic domain (PDE3Acat) (Homo sapiens, UniProt Q14432); assay: Phosphodiesterase inhibitory activity, PDE3 ([3H]cAMP, recombinant enzyme); type: biochemical; conditions: 30° C., 20 minutes, read-out: IC50(μmol/L) PDE3
T2 construct: made in house; host or cells: Sf9 insect cells (baculovirus, Bac-to-Bac / Gateway)
T2 sequence (Q14432 674-1093 limits assumed): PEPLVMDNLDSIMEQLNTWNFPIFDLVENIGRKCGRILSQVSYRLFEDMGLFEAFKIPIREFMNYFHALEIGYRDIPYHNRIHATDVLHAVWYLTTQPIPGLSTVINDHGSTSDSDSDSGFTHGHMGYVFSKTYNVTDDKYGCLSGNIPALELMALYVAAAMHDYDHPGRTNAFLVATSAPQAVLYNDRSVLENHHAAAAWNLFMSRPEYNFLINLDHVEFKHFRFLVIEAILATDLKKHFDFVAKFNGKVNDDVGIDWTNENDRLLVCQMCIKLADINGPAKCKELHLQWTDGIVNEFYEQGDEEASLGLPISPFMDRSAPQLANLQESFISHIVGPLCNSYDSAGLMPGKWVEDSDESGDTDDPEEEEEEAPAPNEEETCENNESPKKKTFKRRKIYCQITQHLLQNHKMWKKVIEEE

[3] = test system: histamine-induced bronchoconstriction in guinea pigs; assay: Histamine-induced bronchoconstriction reaction in guinea pigs; type: in vivo; conditions: Cavia porcellus, iv, 0.5 min, guinea pig, measured 30 seconds after administration, read-out: Inhibition rate (histamine-induced bronchoconstriction); for inhibition in vivo at 0.1 mg/kg: compound 0.1 mg/kg, i.v. (values in [ ])
Procedure: Guinea pigs were anesthetized with pentobarbital (30 mg/kg, i.p.). A cannula for intravenous administration was inserted into the left external jugular vein, a cannula for collecting blood and measuring blood pressure was inserted into the right internal carotid artery, and a tracheal cannula was inserted into the trachea. The guinea pigs were maintained on artificial respiration under the conditions of 60 times/min and 10 mL/kg/stroke. The airflow from the side branch of the tracheal cannula was measured by a bronchospasm transducer (Ugo-Basile) and recorded on a computer via Power Lab (ADInstruments Japan). The guinea pigs were immobilized with gallamine (10 mg/kg, i.v.), and histamine (12.5 μg/kg, i.v.) was administered at 10-minute intervals. After the histamine-induced bronchoconstriction became stable, the compound (0.3 mg/kg, i.v.) was administered. The histamine-induced bronchoconstriction reaction was measured 30 seconds after the compound administration to examine the bronchoconstriction inhibitory activity of the compound. The bronchoconstriction was recorded as the airflow value, and the results were represented by the ratio of the maximum value of the histamine- induced airflow 30 seconds after the administration to the maximum value of the airflow before the administration. Also, the test compounds dissolved in DMSO were used. Further, the indications were as follows: inhibition rate≧90% (+++), 90%>inhibition rate≧80% (++), and 80%>inhibition rate≧70% (+). [ ] means the results in the case of 0.1 mg/kg, i.v.

[4] = 1 mg/kg orally one hour before LPS inhalation

SMILES | inhibition in vivo at 1 mg/kg [1, 4] [%] | IC50 (PDE4Bcat) [µmol/L] | IC50 [2] [µmol/L] | inhibition in vivo at 0.3 mg/kg ([3]; compound 0.3 mg/kg, i.v.) [%] | inhibition in vivo at 0.1 mg/kg [3] [%] | inhibition in vivo at 1 mg/kg ([1]; 1 mg/kg orally after fasting overnight (values in [ ]), one hour before LPS inhalation) [%]
COc1ccc(C2=NN(CCCCOc3ccc(C4=NNC(=O)CC4C)cc3)C(=O)CC2C)c2[nH]c(C(F)(F)F)nc12 (stereo not drawn) [Example 314, 6-(4-Methoxy-2-trifluoromethyl-1H-benzimidazol-7-yl)-5-methyl-2-[4-[4-(4-methyl-6-oxo-1,4,5,6-tetrahydropyridazin-3-yl)phenoxy]butyl]-4,5-dihydro-2H-pyridazin-3-one] | 50 to 90 | < 0.1 | < 0.1 | 80 to 90 |  | 
CCc1ccc2c(C3=NN(CCCCOc4ccc(C5=NNC(=O)CC5C)cc4)C(=O)CC3C)ccc(OC)c2n1 (stereo not drawn) [Example 312, 6-(2-Ethyl-8-methoxyquinolin-5-yl)-5-methyl-2-[4-[4-(4-methyl-6-oxo-1,4,5,6-tetrahydropyridazin-3-yl)phenoxy]butyl]-4,5-dihydro-2H-pyridazin-3-one] | 50 to 90 | < 0.1 | 0.1 to 1 |  | 70 to 80 | 
COc1ccc(-c2ccc(=O)n(CCCCOc3ccc(C4=NNC(=O)CC4C)c(F)c3F)n2)c2cccnc12 (stereo not drawn) [Example 319, 2-[4-[2,3-Difluoro-4-(4-methyl-6-oxo-1,4,5,6-tetrahydropyridazin-3-yl)phenoxy]butyl]-6-(8-methoxyquinolin-5-yl)-2H-pyridazin-3-one] |  | 0.1 to 1 | < 0.1 |  | ≥ 90 | 50 to 90
